From patent US20210069145A1, “COMPOSITIONS AND METHODS FOR REDUCING A FATTY ACID DESATURATION INDEX IN A SUBJECT IN NEED THEREOF” (Amarin Pharmaceuticals Ireland Limited, priority 2013, published 2021) come the findings set out here.

The test system of this assay is fatty acid desaturation index (FADI), RBCs. Description: Fatty acid desaturation index (FADI) ratios in red blood cells, 12-week placebo-controlled study. The format is in vivo, human. To be noted: 4 g/day, 12 weeks, placebo-adjusted, from baseline. Here is the method:
A multi-center, placebo-controlled, randomized, double-blind, 12-week study was performed to evaluate the efficacy and safety of >96% E-EPA in patients with fasting triglyceride levels ≥200 mg/dl and <500 mg/dl despite statin therapy (the mean of two qualifying entry values needed to be ≥185 mg/dl and at least one of the values needed to be ≥200 mg/dl). The primary objective of the study was to determine the efficacy of >96% E-EPA 2 g daily and 4 g daily, compared to placebo, in lowering fasting TG levels in patients with high risk for cardiovascular disease and with fasting TG levels ≥200 mg/dl and <500 mg/dl, despite treatment to LDL-C goal on statin therapy.
The population for this study was men and women >18 years of age with a body mass index ≤45 kg/m^2 with fasting TG levels greater than or equal to 200 mg/dl and less than 500 mg/dl and on a stable does of statin therapy (with or without ezetimibe). The statin was atorvostatin, rosuvastatin or simvastatin. The dose of statin must have been stable for ≥4 weeks prior to the LDL-C/TG baseline qualifying measurement for randomization. The statin dose was optimized such that the patients are at their LDL-C goal at the LDL-C/TG baseline qualifying measurements. The same statin at the same dose was continued until the study ended. […]
The primary efficacy variable for the double-blind treatment period was percent change in TG from baseline to Week 12 endpoint. The secondary efficacy variables for the double-blind treatment period included the following: • Percent changes in total cholesterol (TC), high-density lipoprotein cholesterol (HDL-C), LDL-C, calculated non-HDL-C, and very low-density lipoprotein cholesterol (VLDL-C) from baseline to Week 12 endpoint; • Percent change in very low-density lipoprotein TG from baseline to Week 12; • Percent changes in apolipoprotein A-I (apo A-I), apolipoprotein B (apo B), and apo A-I/apo B ratio from baseline to Week 12; • Percent changes in lipoprotein(a) from baseline to Week 12; • Percent changes in LDL particle number and size, measured by nuclear magnetic resonance, from baseline to Week 12; • Percent change in remnant-like particle cholesterol from baseline to Week 12; • Percent change in oxidized LDL from baseline to Week 12; • Changes in FPG and HbA1c from baseline to Week 12; • Change in insulin resistance, as assessed by the homeostasis model index insulin resistance, from baseline to Week 12; • Percent change in lipoprotein associated phospholipase A2 (Lp-PLA2) from baseline to Week 12; • Change in intracellular adhesion molecule-1 from baseline to Week 12; • Change in interleukin-2 from baseline to Week 12; • Change in plasminogen activator inhibitor-1 from baseline to Week 12. […]

[1] abbreviates: listed as Ethyl Eicosapentaenoate.

Take `CC/C=C\C/C=C\C/C=C\C/C=C\C/C=C\CCCC(=O)OCC` [ethyl eicosapentaenoate, all-cis eicosa-5,8,11,14,17-pentaenoic acid ethyl ester]: the “FADI-16 (Palmitoleic acid/Palmitic acid, C16:1/C16:0) % Change, RBCs” value is reported as “significantly reduced” and the “FADI-18 (Oleic acid/Stearic Acid, C18:1/C18:0) % Change, RBCs” value is listed as “significantly reduced”. Under setting [1], the “FADI-16 (Palmitoleic acid/Palmitic acid, C16:1/C16:0) % Change, RBCs” value was −15.7% and the “FADI-18 (Oleic acid/Stearic Acid, C18:1/C18:0) % Change, RBCs” value is given as −3.1%.
